# From patent US20260070945A1, “MACROCYCLIC IMMUNOMODULATORS” (Bristol-Myers Squibb Company, priority 2022, published 2026)
# pIC50: −log10 of the molar value. Where a SMILES comes first, the peptide text is derived from it. Bridges are numbered along the chain shown (N, C = ends). [ ]: non-standard residue; d: D form. The star is where a group is joined. X15 = NCCCC[C@H](NC(=O)CNCCNCCN*)C(=O)NCCCCCCCCCCC(=O)O; X3 = NCCC[C@H](NC(=O)CNCCNCCN*)C(=O)NCCCCCCCCCCC(=O)O; X4 = NCC[C@H](NC(=O)CNCCNCCN*)C(=O)NCCCCCCCCCCC(=O)O; Phe(4-COOH) = N[C@@H](Cc1ccc(C(=O)O)cc1)C(=O)O; Bip = N[C@@H](Cc1ccc(-c2ccccc2)cc1)C(=O)O; Phe(3-Me) = Cc1cccc(C[C@H](N)C(=O)O)c1; Cha = N[C@@H](CC1CCCCC1)C(=O)O; Carboxymethyl = O=C(O)C*; NMeA = CN[C@@H](C)C(=O)O; Orn = NCCC[C@H](N)C(=O)O; Aun = NCCCCCCCCCCC(=O)O; Dab = NCC[C@H](N)C(=O)O; Dap = NC[C@H](N)C(=O)O; AEEA = NCCOCCOCC(=O)O
# Molecular target: T1, PD-1/PD-L1 interaction (PE-labeled human PD-L1-Ig binding to Jurkat cell line over-expressing human PD-1) (Homo sapiens, UniProt Q15116)
# T1 construct: expressed in transfected cells; host or cells: Jurkat
# T1 sequence (Q15116 25-288): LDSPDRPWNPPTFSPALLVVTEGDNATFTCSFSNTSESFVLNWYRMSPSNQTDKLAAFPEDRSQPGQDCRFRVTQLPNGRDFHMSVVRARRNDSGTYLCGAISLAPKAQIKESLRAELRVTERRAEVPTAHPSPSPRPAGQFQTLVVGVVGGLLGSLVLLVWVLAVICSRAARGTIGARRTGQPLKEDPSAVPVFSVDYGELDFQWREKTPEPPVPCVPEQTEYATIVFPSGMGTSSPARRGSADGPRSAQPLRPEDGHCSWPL
# Assay: Jurkat-PD-1 Cell Binding High-Content Screening Assay (CBA)
# Conditions: Jurkat-hPD-1 cells, PE-labeled PD-L1-Ig 20 nM final; read-out: Jurkat HPD1 PDL1 IC50
# Summary of the method: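 Compound is added first to the PD-1-expressing Jurkat cells and held 2 h at 37 °C in serum-containing DMEM. The fluorescent PD-L1 fusion follows at 20 nM final for 1 h. Fixed, Hoechst-stained cells are then imaged for bound label.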
row,SMILES,pIC50
1,Cc1cccc(C[C@@H]2NC(=O)[C@H](CC(=O)O)NC(=O)[C@H](Cc3ccc(OCC(=O)O)cc3)NC(=O)[C@H](CN)NC(=O)CSC[C@@H](C(=O)NCCNCCNCC(=O)N[C@@H](CCN)C(=O)NCCCCCCCCCCC(=O)O)NC(=O)[C@H](CO)NC(=O)[C@H](C(C)C)NC(=O)[C@H](CC(C)C)NC(=O)[C@H](CC(N)=O)NC(=O)[C@@H](CC(C)C)NC(=O)[C@H](C)N(C)C(=O)[C@H](C(C)C)NC(=O)[C@H](Cc3ccc(-c4ccccc4)cc3)NC(=O)[C@H](CC(C)C)NC2=O)c1 [Example 1063] ({CH2CO}-[Dap]Y(Carboxymethyl)D[Phe(3-Me)]L[Bip]V[NMeA][dL]NLVSC-X4; thioether N-14),7.55
2,Cc1cccc(C[C@@H]2NC(=O)[C@H](CC(=O)O)NC(=O)[C@H](Cc3ccc(OCC(=O)O)cc3)NC(=O)[C@H](CN)NC(=O)CSC[C@@H](C(=O)NCCNCCNCC(=O)N[C@@H](CCCN)C(=O)NCCCCCCCCCCC(=O)O)NC(=O)[C@H](CO)NC(=O)[C@H](C(C)C)NC(=O)[C@H](CC(C)C)NC(=O)[C@H](CC(N)=O)NC(=O)[C@@H](CC(C)C)NC(=O)[C@H](C)N(C)C(=O)[C@H](C(C)C)NC(=O)[C@H](Cc3ccc(-c4ccccc4)cc3)NC(=O)[C@H](CC(C)C)NC2=O)c1 [Example 1064] ({CH2CO}-[Dap]Y(Carboxymethyl)D[Phe(3-Me)]L[Bip]V[NMeA][dL]NLVSC-X3; thioether N-14),7.63
3,Cc1cccc(C[C@@H]2NC(=O)[C@H](CC(=O)O)NC(=O)[C@H](Cc3ccc(OCC(=O)O)cc3)NC(=O)[C@H](CN)NC(=O)CSC[C@@H](C(=O)NCCNCCNCC(=O)N[C@@H](CCCCN)C(=O)NCCCCCCCCCCC(=O)O)NC(=O)[C@H](CO)NC(=O)[C@H](C(C)C)NC(=O)[C@H](CC(C)C)NC(=O)[C@H](CC(N)=O)NC(=O)[C@@H](CC(C)C)NC(=O)[C@H](C)N(C)C(=O)[C@H](C(C)C)NC(=O)[C@H](Cc3ccc(-c4ccccc4)cc3)NC(=O)[C@H](CC(C)C)NC2=O)c1 [Example 1065] ({CH2CO}-[Dap]Y(Carboxymethyl)D[Phe(3-Me)]L[Bip]V[NMeA][dL]NLVSC-X15; thioether N-14),7.49
4,Cc1cccc(C[C@@H]2NC(=O)[C@H](CC(=O)O)NC(=O)[C@H](Cc3ccc(OCC(=O)O)cc3)NC(=O)[C@H](CN)NC(=O)CSC[C@@H](C(=O)N[C@@H](CC(=O)O)C(=O)NCCCCCCCCCCC(=O)O)NC(=O)[C@H](CO)NC(=O)[C@H](C(C)C)NC(=O)[C@H](CC(C)C)NC(=O)[C@H](CC(N)=O)NC(=O)[C@@H](CC(C)C)NC(=O)[C@H](C)N(C)C(=O)[C@H](C(C)C)NC(=O)[C@H](Cc3ccc(-c4ccccc4)cc3)NC(=O)[C@H](CC(C)C)NC2=O)c1 [Example 1067] ({CH2CO}-[Dap]Y(Carboxymethyl)D[Phe(3-Me)]L[Bip]V[NMeA][dL]NLVSCD[Aun]-OH; thioether N-14),6.97
5,Cc1cccc(C[C@@H]2NC(=O)[C@H](CC(=O)O)NC(=O)[C@H](Cc3ccc(OCC(=O)O)cc3)NC(=O)[C@H](CN)NC(=O)CSC[C@@H](C(=O)N[C@@H](CCC(=O)O)C(=O)NCCCCCCCCCCC(=O)O)NC(=O)[C@H](CO)NC(=O)[C@H](C(C)C)NC(=O)[C@H](CC(C)C)NC(=O)[C@H](CC(N)=O)NC(=O)[C@@H](CC(C)C)NC(=O)[C@H](C)N(C)C(=O)[C@H](C(C)C)NC(=O)[C@H](Cc3ccc(-c4ccccc4)cc3)NC(=O)[C@H](CC(C)C)NC2=O)c1 [Example 1068] ({CH2CO}-[Dap]Y(Carboxymethyl)D[Phe(3-Me)]L[Bip]V[NMeA][dL]NLVSCE[Aun]-OH; thioether N-14),6.77
6,CC[C@H](C)[C@@H]1NC(=O)[C@H](Cc2ccc(-c3ccccc3)cc2)NC(=O)[C@H](CC(C)C)NC(=O)[C@H](Cc2c[nH]c3ccccc23)NC(=O)[C@H](CC(=O)O)NC(=O)[C@H](Cc2ccc(C(=O)O)cc2)NC(=O)[C@H](Cc2ccc(OCC(=O)O)cc2)NC(=O)CSC[C@@H](C(=O)NCCOCCOCC(=O)NCCCCCCCCCCC(=O)O)NC(=O)[C@H](CO)NC(=O)[C@H](C(C)C)NC(=O)[C@H](CC2CCCCC2)NC(=O)[C@H](CCN)NC(=O)[C@@H](CC(C)C)NC(=O)[C@H](C)N(C)C1=O [Example 1069] ({CH2CO}-Y(Carboxymethyl)[Phe(4-COOH)]DWL[Bip]I[NMeA][dL][Dab][Cha]VSC[AEEA][Aun]-OH; thioether N-14),7.39
7,CC[C@H](C)[C@@H]1NC(=O)[C@H](Cc2ccc(-c3ccccc3)cc2)NC(=O)[C@H](CC(C)C)NC(=O)[C@H](Cc2c[nH]c3ccccc23)NC(=O)[C@H](CC(=O)O)NC(=O)[C@H](Cc2ccc(C(=O)O)cc2)NC(=O)[C@H](Cc2ccc(OCC(=O)O)cc2)NC(=O)CSC[C@@H](C(=O)N[C@@H](CN)C(=O)NCCCCCCCCCCC(=O)O)NC(=O)[C@H](CO)NC(=O)[C@H](C(C)C)NC(=O)[C@H](CC2CCCCC2)NC(=O)[C@H](CCN)NC(=O)[C@@H](CC(C)C)NC(=O)[C@H](C)N(C)C1=O [Example 1070] ({CH2CO}-Y(Carboxymethyl)[Phe(4-COOH)]DWL[Bip]I[NMeA][dL][Dab][Cha]VSC[Dap][Aun]-OH; thioether N-14),7.41
8,CC[C@H](C)[C@@H]1NC(=O)[C@H](Cc2ccc(-c3ccccc3)cc2)NC(=O)[C@H](CC(C)C)NC(=O)[C@H](Cc2c[nH]c3ccccc23)NC(=O)[C@H](CC(=O)O)NC(=O)[C@H](Cc2ccc(C(=O)O)cc2)NC(=O)[C@H](Cc2ccc(OCC(=O)O)cc2)NC(=O)CSC[C@@H](C(=O)N[C@@H](CCCN)C(=O)NCCCCCCCCCCC(=O)O)NC(=O)[C@H](CO)NC(=O)[C@H](C(C)C)NC(=O)[C@H](CC2CCCCC2)NC(=O)[C@H](CCN)NC(=O)[C@@H](CC(C)C)NC(=O)[C@H](C)N(C)C1=O [Example 1072] ({CH2CO}-Y(Carboxymethyl)[Phe(4-COOH)]DWL[Bip]I[NMeA][dL][Dab][Cha]VSC[Orn][Aun]-OH; thioether N-14),7.74
9,CC[C@H](C)[C@@H]1NC(=O)[C@H](Cc2ccc(-c3ccccc3)cc2)NC(=O)[C@H](CC(C)C)NC(=O)[C@H](Cc2c[nH]c3ccccc23)NC(=O)[C@H](CC(=O)O)NC(=O)[C@H](Cc2ccc(C(=O)O)cc2)NC(=O)[C@H](Cc2ccc(OCC(=O)O)cc2)NC(=O)CSC[C@@H](C(=O)N[C@@H](CCCNC(=N)N)C(=O)NCCCCCCCCCCC(=O)O)NC(=O)[C@H](CO)NC(=O)[C@H](C(C)C)NC(=O)[C@H](CC2CCCCC2)NC(=O)[C@H](CCN)NC(=O)[C@@H](CC(C)C)NC(=O)[C@H](C)N(C)C1=O [Example 1074] ({CH2CO}-Y(Carboxymethyl)[Phe(4-COOH)]DWL[Bip]I[NMeA][dL][Dab][Cha]VSCR[Aun]-OH; thioether N-14),7.36
10,CC[C@H](C)[C@@H]1NC(=O)[C@H](Cc2ccc(-c3ccccc3)cc2)NC(=O)[C@H](CC(C)C)NC(=O)[C@H](Cc2c[nH]c3ccccc23)NC(=O)[C@H](CC(=O)O)NC(=O)[C@H](Cc2ccc(C(=O)O)cc2)NC(=O)[C@H](Cc2ccc(OCC(=O)O)cc2)NC(=O)CSC[C@@H](C(=O)N[C@@H](Cc2c[nH]cn2)C(=O)NCCCCCCCCCCC(=O)O)NC(=O)[C@H](CO)NC(=O)[C@H](C(C)C)NC(=O)[C@H](CC2CCCCC2)NC(=O)[C@H](CCN)NC(=O)[C@@H](CC(C)C)NC(=O)[C@H](C)N(C)C1=O [Example 1075] ({CH2CO}-Y(Carboxymethyl)[Phe(4-COOH)]DWL[Bip]I[NMeA][dL][Dab][Cha]VSCH[Aun]-OH; thioether N-14),7.69
11,CC[C@H](C)[C@@H]1NC(=O)[C@H](Cc2ccc(-c3ccccc3)cc2)NC(=O)[C@H](CC(C)C)NC(=O)[C@H](Cc2c[nH]c3ccccc23)NC(=O)[C@H](CC(=O)O)NC(=O)[C@H](Cc2ccc(C(=O)O)cc2)NC(=O)[C@H](Cc2ccc(OCC(=O)O)cc2)NC(=O)CSC[C@@H](C(=O)N[C@@H](CN)C(=O)NCCOCCOCC(=O)NCCCCCCCCCCC(=O)O)NC(=O)[C@H](CO)NC(=O)[C@H](C(C)C)NC(=O)[C@H](CC2CCCCC2)NC(=O)[C@H](CCN)NC(=O)[C@@H](CC(C)C)NC(=O)[C@H](C)N(C)C1=O [Example 1076] ({CH2CO}-Y(Carboxymethyl)[Phe(4-COOH)]DWL[Bip]I[NMeA][dL][Dab][Cha]VSC[Dap][AEEA][Aun]-OH; thioether N-14),7.78
12,CC[C@H](C)[C@@H]1NC(=O)[C@H](Cc2ccc(-c3ccccc3)cc2)NC(=O)[C@H](CC(C)C)NC(=O)[C@H](Cc2c[nH]c3ccccc23)NC(=O)[C@H](CC(=O)O)NC(=O)[C@H](Cc2ccc(C(=O)O)cc2)NC(=O)[C@H](Cc2ccc(OCC(=O)O)cc2)NC(=O)CSC[C@@H](C(=O)N[C@@H](CCN)C(=O)NCCOCCOCC(=O)NCCCCCCCCCCC(=O)O)NC(=O)[C@H](CO)NC(=O)[C@H](C(C)C)NC(=O)[C@H](CC2CCCCC2)NC(=O)[C@H](CCN)NC(=O)[C@@H](CC(C)C)NC(=O)[C@H](C)N(C)C1=O [Example 1077] ({CH2CO}-Y(Carboxymethyl)[Phe(4-COOH)]DWL[Bip]I[NMeA][dL][Dab][Cha]VSC[Dab][AEEA][Aun]-OH; thioether N-14),7.74
13,CC[C@H](C)[C@@H]1NC(=O)[C@H](Cc2ccc(-c3ccccc3)cc2)NC(=O)[C@H](CC(C)C)NC(=O)[C@H](Cc2c[nH]c3ccccc23)NC(=O)[C@H](CC(=O)O)NC(=O)[C@H](Cc2ccc(C(=O)O)cc2)NC(=O)[C@H](Cc2ccc(OCC(=O)O)cc2)NC(=O)CSC[C@@H](C(=O)N[C@@H](CCCN)C(=O)NCCOCCOCC(=O)NCCCCCCCCCCC(=O)O)NC(=O)[C@H](CO)NC(=O)[C@H](C(C)C)NC(=O)[C@H](CC2CCCCC2)NC(=O)[C@H](CCN)NC(=O)[C@@H](CC(C)C)NC(=O)[C@H](C)N(C)C1=O [Example 1078] ({CH2CO}-Y(Carboxymethyl)[Phe(4-COOH)]DWL[Bip]I[NMeA][dL][Dab][Cha]VSC[Orn][AEEA][Aun]-OH; thioether N-14),7.79
